Measured values published in patent publication US20250019387A1 (Frontier Medicines Corporation, priority 0001, published 2025).
Where two headings read alike, the source gives them in different places.

Key:
[1] = target: KRAS G12C and PI3Ka (Ras-binding domain) interaction (Homo sapiens (Human), UniProt P01116, C118S/C51S/C80L/G12C); assay: Inhibition of KRAS G12C and PI3Ka binding (AlphaScreen); conditions: GMPPNP-loaded KRAS G12C, 2 hours incubation with compound; read-out: PI3Ka RBD IC50
Experimental: Compounds were diluted in 100% DMSO and each compound concentration was spotted at 200 nl/well onto low volume, white 384 well plates. […] The KRAS GT2C was diluted in 25 mM Hepes, pH 7.4, 150 mM NaCl, 5 mMv MgCl2, 0.0100 TritonX-100 and 10 μM GMPPNP and added at 10 ul/well to compound-spotted plates resulting in a […] concentration of 2%. Plates were incubated for 2 hours. A mixture of RBD and the AlphaScreen streptavidin donor and nickel chelate acceptor beads diluted in 25 mMv Hepes, pH 7.4, 150 mMv NaCl, 5 mM MgCl2, 0.0100 TritonX-100 and 2% DMSO was then added at 10 ul/well and incubated for 60-90 minutes before the samples were read for emission at 570 nm after excitation of the donor beads at 680 nm. All incubations were performed at room temperature. […] Final assay conditions were 1.5 nM KRAS GT2C, 100 nM RBD, 1.25 ug/ml of AlphaScreen donor beads and 10 μg/ml AlphaLISA acceptor beads. IC50S were determined using nonlinear regression fit of [inhibitor]vs. response (4 parameters). […]

[2] = target: KRAS G12C and cRAF (Ras-binding domain) interaction (Homo sapiens (Human), UniProt P01116, C118S/C51S/C80L/G12C); assay: Inhibition of KRAS G12C and cRAF binding (AlphaScreen)
Method in brief: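 Compounds (DMSO) preincubated 19-20 h at room temperature, then RBD with streptavidin donor and glutathione acceptor beads added in 25 mM Hepes pH 7.4, 150 mM NaCl, 5 mM MgCl2, 0.01% Triton X-100, 2% DMSO for 60-90 min. Emission 570 nm (excitation 680 nm); IC50 by 4-parameter fit. Counter-screen used biotin-AviTag-GST instead of RBD.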

[3] = GMPPNP-loaded KRAS G12C, 19-20 hours incubation with compound, read-out: IC50 (Inhibition of KRAS G12C and cRAF Binding)

KRAS G12C and PI3Ka (Ras-binding domain) interaction, sequence (P01116 other isoform, or with tags, fused parts or gaps G12C/C51S/C80L/C118S): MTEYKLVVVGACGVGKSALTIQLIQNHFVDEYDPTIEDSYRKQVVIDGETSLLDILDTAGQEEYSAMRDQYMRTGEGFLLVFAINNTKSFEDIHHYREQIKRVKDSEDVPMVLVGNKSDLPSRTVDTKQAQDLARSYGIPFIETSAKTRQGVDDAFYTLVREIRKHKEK
KRAS G12C and cRAF (Ras-binding domain) interaction, sequence (P01116 other isoform, or with tags, fused parts or gaps G12C/C51S/C80L/C118S): as above

Compound	IC50 [1]	IC50 [2, 3]	IC50 ([2]; additional exemplary compounds, KRAS G12C and cRAF binding, read-out: RAF1 RBD IC50)
CN(c1nc(OC[C@@]23CCCN2C[C@H](F)C3)nc2c1CCN(c1cccc3cccc(Cl)c13)C2)[C@@H]1CCN(C(=O)/C=C/c2nc([C@H]3C[C@@H]3F)no2)C1 [Example 130, (E)-1-((R)-3-((7-(8-chloronaphthalen-1-yl)-2-(((2R,7aS)-2-fluorohexahydro-1H-pyrrolizin-7a-yl)methoxy)-5,6,7,8-tetrahydropyrido[3,4-d]pyrimidin-4-yl)(methyl)amino)pyrrolidin-1-yl)-3-(3-((1R,2S)-2-fluorocyclopropyl)-1,2,4-oxadiazol-5-yl)prop-2-en-1-one]	10 to 100 nM	10 to 100 nM	
CN(CC1CN(C(=O)/C=C/c2nc([C@H]3C[C@@H]3F)no2)C1)c1nc(OC[C@@]23CCCN2C[C@H](F)C3)nc2c(F)c(-c3cccc4cccc(Cl)c34)ncc12 [Example 139, (E)-1-(3-(((7-(8-chloronaphthalen-1-yl)-8-fluoro-2-(((2R,7aS)-2-fluorotetrahydro-1H-pyrrolizin-7a(5H)-yl)methoxy)pyrido[4,3-d]pyrimidin-4-yl)(methyl)amino)methyl)azetidin-1-yl)-3-(3-((1R,2S)-2-fluorocyclopropyl)-1,2,4-oxadiazol-5-yl)prop-2-en-1-one]	10 to 100 nM	10 to 100 nM	
CN(c1nc(OC[C@@]23CCCN2C[C@H](F)C3)nc2c(F)c(-c3cccc4cccc(Cl)c34)ncc12)[C@@H]1CCN(C(=O)/C=C/c2nc([C@H]3C[C@@H]3F)no2)C1 [Example 140, (E)-1-((R)-3-((7-(8-chloronaphthalen-1-yl)-8-fluoro-2-(((2R,7aS)-2-fluorohexahydro-1H-pyrrolizin-7a-yl)methoxy)pyrido[4,3-d]pyrimidin-4-yl)(methyl)amino)pyrrolidin-1-yl)-3-(3-((1R,2S)-2-fluorocyclopropyl)-1,2,4-oxadiazol-5-yl)prop-2-en-1-one]	10 to 100 nM	10 to 100 nM	
CN(c1nc(OCC23CCCN2CCC3)nc2c1CCN(c1cccc3cccc(Cl)c13)C2)[C@@H]1CCN(C(=O)/C=C/c2nc(C3CC3)no2)C1 [Example 161, (R,E)-1-(3-((7-(8-chloronaphthalen-1-yl)-2-((hexahydro-1H-pyrrolizin-7a-yl)methoxy)-5,6,7,8-tetrahydropyrido[3,4-d]pyrimidin-4-yl)(methyl)amino)pyrrolidin-1-yl)-3-(3-cyclopropyl-1,2,4-oxadiazol-5-yl)prop-2-en-1-one]	10 to 100 nM	10 to 100 nM	
CCc1noc(/C=C/C(=O)N2CC(CN(C)c3nc(OCC45CCCN4CCC5)nc4c3CCN(c3cccc5cccc(Cl)c35)C4)C2)n1 [Example 168, (E)-1-(3-(((7-(8-chloronaphthalen-1-yl)-2-((hexahydro-1H-pyrrolizin-7a-yl)methoxy)-5,6,7,8-tetrahydropyrido[3,4-d]pyrimidin-4-yl)(methyl)amino)methyl)azetidin-1-yl)-3-(3-ethyl-1,2,4-oxadiazol-5-yl)prop-2-en-1-one]	10 to 100 nM	10 to 100 nM	
CN(CC1CN(C(=O)/C=C/c2nc(C3CC3)no2)C1)c1nc(OCC23CCCN2CCC3)nc2c1CCN(c1cccc3cccc(Cl)c13)C2 [Example 172, (E)-1-(3-(((7-(8-chloronaphthalen-1-yl)-2-((hexahydro-1H-pyrrolizin-7a-yl)methoxy)-5,6,7,8-tetrahydropyrido[3,4-d]pyrimidin-4-yl)(methyl)amino)methyl)azetidin-1-yl)-3-(3-cyclopropyl-1,2,4-oxadiazol-5-yl)prop-2-en-1-one]	10 to 100 nM	10 to 100 nM	
CN(CC1CN(C(=O)/C=C/c2nc(C3CC3)no2)C1)c1nc(OCC23CCCN2CCC3)nc2c(F)c(-c3cccc4cccc(Cl)c34)ncc12 [Example 173, (E)-1-(3-(((7-(8-chloronaphthalen-1-yl)-8-fluoro-2-((tetrahydro-1H-pyrrolizin-7a(5H)-yl)methoxy)pyrido[4,3-d]pyrimidin-4-yl)(methyl)amino)methyl)azetidin-1-yl)-3-(3-cyclopropyl-1,2,4-oxadiazol-5-yl)prop-2-en-1-one]	10 to 100 nM	10 to 100 nM	
CN1C[C@H](O)C[C@H]1C#CC(=O)N1CC[C@@H](N(C)c2nc(OC[C@@]34CCCN3C[C@H](F)C4)nc3c(F)c(-c4cccc5cccc(Cl)c45)ncc23)C1 [Example 247, 1-((R)-3-((7-(8-chloronaphthalen-1-yl)-8-fluoro-2-(((2R,7aS)-2-fluorohexahydro-1H-pyrrolizin-7a-yl)methoxy)pyrido[4,3-d]pyrimidin-4-yl)(methyl)amino)pyrrolidin-1-yl)-3-((2S,4R)-4-hydroxy-1-methylpyrrolidin-2-yl)prop-2-yn-1-one]	10 to 100 nM	< 10 nM	
CN1C[C@@H](O)C[C@@H]1C#CC(=O)N1CC[C@@H](N(C)c2nc(OC[C@@]34CCCN3C[C@H](F)C4)nc3c(F)c(-c4cccc5cccc(Cl)c45)ncc23)C1 [Example 248, 1-((R)-3-((7-(8-chloronaphthalen-1-yl)-8-fluoro-2-(((2R,7aS)-2-fluorohexahydro-1H-pyrrolizin-7a-yl)methoxy)pyrido[4,3-d]pyrimidin-4-yl)(methyl)amino)pyrrolidin-1-yl)-3-((2R,4S)-4-hydroxy-1-methylpyrrolidin-2-yl)prop-2-yn-1-one]	10 to 100 nM	10 to 100 nM	
C=CC(=O)N1CC[C@@H](N(C)c2nc(OC[C@@]34CCCN3C[C@H](F)C4)nc3c(F)c(-c4cccc5cccc(F)c45)ncc23)C1 [Example 258, 1-((R)-3-((8-fluoro-7-(8-fluoronaphthalen-1-yl)-2-(((2R,7aS)-2-fluorotetrahydro-1H-pyrrolizin-7a(5H)-yl)methoxy)pyrido[4,3-d]pyrimidin-4-yl)(methyl)amino)pyrrolidin-1-yl)prop-2-en-1-one]	10 to 100 nM	10 to 100 nM	
C=CC(=O)N1CC[C@@H](N(C)c2nc(OCC34CCCN3CCC4)nc3c(F)c(-c4cccc5cccc(F)c45)ncc23)C1 [Example 259, (R)-1-(3-((8-fluoro-7-(8-fluoronaphthalen-1-yl)-2-((tetrahydro-1H-pyrrolizin-7a(5H)-yl)methoxy)pyrido[4,3-d]pyrimidin-4-yl)(methyl)amino)pyrrolidin-1-yl)prop-2-en-1-one]	10 to 100 nM	100 to 500 nM	
C#Cc1c(F)ccc2cccc(-c3ncc4c(N(C)[C@@H]5CCN(C(=O)C=C)C5)nc(OC[C@]56CCCN5C[C@H](F)C6)nc4c3F)c12 [Example 305, 1-((R)-3-((7-(8-ethynyl-7-fluoronaphthalen-1-yl)-8-fluoro-2-(((2R,7aR)-2-fluorotetrahydro-1H-pyrrolizin-7a(5H)-yl)methoxy)pyrido[4,3-d]pyrimidin-4-yl)(methyl)amino)pyrrolidin-1-yl)prop-2-en-1-one]		10 to 100 nM	
C=CC(=O)N1CC[C@@H](N(C)c2nc(OC[C@@]34CCCN3C[C@H](F)C4)nc3c(F)c(-c4cccc5cccc(C#CC)c45)ncc23)C1 [Example 306, 1-((R)-3-((8-fluoro-2-(((2R,7aS)-2-fluorotetrahydro-1H-pyrrolizin-7a(5H)-yl)methoxy)-7-(8-(prop-1-yn-1-yl)naphthalen-1-yl)pyrido[4,3-d]pyrimidin-4-yl)(methyl)amino)pyrrolidin-1-yl)prop-2-en-1-one]		> 500 nM	
C=CC(=O)N1CC[C@@H](N(C)c2nc(OC[C@@]34CCCN3C[C@H](F)C4)nc3c(F)c(-c4cccc5cccc(C(F)F)c45)ncc23)C1 [Example 307, 1-((R)-3-((7-(8-(difluoromethyl)naphthalen-1-yl)-8-fluoro-2-(((2R,7aS)-2-fluorohexahydro-1H-pyrrolizin-7a-yl)methoxy)pyrido[4,3-d]pyrimidin-4-yl)(methyl)amino)pyrrolidin-1-yl)prop-2-en-1-one]		> 500 nM	
C=CC(=O)N1C[C@H](F)[C@@H](N(C)c2nc(OC[C@@]34CCCN3C[C@H](F)C4)nc3c(F)c(-c4cccc5cccc(Cl)c45)ncc23)C1 [drawing 2208]			10 to 100 nM
